Test results: patent US12447156B2, “Treating progressive familial intrahepatic cholestasis (PFIC) with IBAT inhibitors” (ALBIREO AB, priority 2020, dated 2025)

Experiments:
Type in all cases: in vivo, human
children with PFIC [1] = assay: Pooled analysis of PEDFIC 1 and PEDFIC 2 (up to 48 weeks): safety
Source text: This example describes key outcomes with odevixibat in children with PFIC1 (familial intrahepatic cholestasis 1 [FIC1] deficiency) or PFIC2 ((bile salt export pump [BSEP] deficiency) based on pooled analysis of data from the phase 3 PEDFIC 1 (P1; NCT03566238) and PEDFIC 2 (P2; NCT03659916) studies. This pooled analysis covers up to 48 weeks of odevixibat treatment from P1 and through the planned P2 interim data cut. The following outcomes are described: change in serum bile acids (sBAs), change in pruritus score (measured using the PRUCISION scale; range: 0-4), evaluation of growth and sleep parameters, and safety monitoring. Mean changes in autotaxin (linked to cholestatic pruritus intensity) and plasma 7α-hydroxy-4-cholesten-3-one (p-C4; marker of bile acid synthesis) levels were also summarized.

children with PFIC [2] = assay: PEDFIC 1: treatment responders in analysis of pretreatment serum bile acid parameters
Description: This analysis included children with PFIC aged 0.5-18 years with elevated sBAs and history of significant pruritus who were treated with odevixibat 40 μg/kg/day (n=23) or 120 μg/kg/day (n=19) in […] 1. Pretreatment sBA composition was analyzed using liquid chromatography-tandem mass spectrometry, quantifying serum concentrations of total BAs and primary (cholate, chenodeoxycholate) and secondary (deoxycholate, lithocholate) BAs. sBA concentrations are presented below including and excluding the contribution from ursodeoxycholate (UDCA). Pretreatment serum concentrations of 7α-hydroxy-4-cholesten-3-one (C4) were also quantified. Pretreatment parameters were analysed in treatment responders (Rs; i.e., patients with sBAs≤70 μmol/L or reduced ≥70% and/or a ≥1-point drop in observer-reported pruritus score from baseline to end of treatment) vs nonresponders (NRs).

patients with PFIC = assay: PEDFIC 2 open-label extension trial, interim analysis: safety (TEAEs)
Description: Study Design • This phase 3 study included a screening period (for newly enrolled patients [i.e., cohort 2] only) and a 72-week treatment period (FIG. 9) in which all patients received oral, once-daily odevixibat 120 μg/kg. • Patients returned to the clinic 4 and 12 weeks after the first dose of odevixibat and then approximately every 10 to 12 weeks thereafter. • Following the 72-week treatment period, patients either enrolled in an optional extension for continued treatment or returned for a follow-up visit 4 weeks after ending study drug. Outcomes, Assessments, and Statistical Analysis • The primary efficacy outcomes were to assess the effects of odevixibat on sBAs and pruritus, including mean changes and proportion of patients meeting response criteria. • sBA responders were defined as patients who achieved a normalization of sBAs or reduction of ≥70%. • Pruritus responders were defined as patients who achieved a ≥1-point drop on the pruritus assessment. • Secondary outcomes included characterizing the long-term safety and tolerability of odevixibat, as well as the effects of odevixibat on growth, biliary diversion and/or liver transplantation, and markers of cholestasis and liver disease. • For the P1O and PIP groups, there were 2 baselines (PEDFIC 1 baseline and PEDFIC 2 baseline); for those in cohort 2, baseline refers to the value prior to initiation of odevixibat in PEDFIC 2. • This interim analysis focuses on data collected after 24 weeks of treatment in PEDFIC 2. • T tests were used to calculate P values for primary outcomes in the P1O group only; other outcomes were summarized descriptively.

Structure (SMILES): CCCCC1(CCCC)CN(c2ccccc2)c2cc(SC)c(OCC(=O)N[C@@H](C(=O)N[C@@H](CC)C(=O)O)c3ccc(O)cc3)cc2S(=O)(=O)N1 [Odevixibat, 1,1-dioxo-3,3-dibutyl-5-phenyl-7-methylthio-8-(N-{(R)-α-[N-((S)-1-carboxypropyl)carbamoyl]-4-hydroxybenzyl}carbamoylmethoxy)-2,3,4,5-tetrahydro-1,2,5-benzothiadiazepine]
- patients with drug-related TEAEs (children with PFIC [1]; pooled P1+P2, 32 of 77 patients): 42%
- patients who experienced any TEAE (children with PFIC [1]; pooled P1+P2, 61 of 77 patients): 79%
- drug-related serious TEAEs (children with PFIC [1]; pooled P1+P2, 77 patients): no drug-related serious TEAEs were reported
- patients reporting severe TEAEs (children with PFIC [1]; pooled P1+P2, 77 patients): Eight
- patients with TEAEs leading to treatment discontinuation (children with PFIC [1]; pooled P1+P2, 77 patients): Four
- incidence of TEAEs (children with PFIC [1]; pooled P1+P2, BSEP subtype 1): 77%
- incidence of TEAEs (children with PFIC [1]; pooled P1+P2, BSEP subtype 2): 86%
- incidence of TEAEs (children with PFIC [1]; pooled P1+P2, patients with PFIC1, placebo in P1 85%): 80%
- incidence of TEAEs (children with PFIC [1]; pooled P1+P2, patients with PFIC2): 80%
- tolerability (children with PFIC [1]; pooled P1+P2, treatment for up to 48 weeks): well tolerated
- proportion of treatment responders (sBAs ≤70 μmol/L or reduced ≥70% and/or ≥1-point drop in pruritus score) (children with PFIC [2]; PEDFIC 1, 40 μg/kg/day): 16/23
- proportion of treatment responders (sBAs ≤70 μmol/L or reduced ≥70% and/or ≥1-point drop in pruritus score) (children with PFIC [2]; PEDFIC 1, dose groups combined, 24/42): 57%
- fat-soluble vitamin deficiencies refractory to clinically recommended vitamin supplementation (patients with PFIC; PEDFIC 2): no new or worsening fat-soluble vitamin deficiencies
- Any TEAE, patients (patients with PFIC; PEDFIC 2, Cohort 2, n = 16): 8 (50.0) n (%)
- Drug-related TEAE by preferred term: Blood bilirubin increased (patients with PFIC; PEDFIC 2, Cohort 2, n = 16): 3 (18.8) n (%)
- Drug-related TEAE by preferred term: Cough (patients with PFIC; PEDFIC 2, Cohort 2, n = 16): 0 n (%)
- Drug-related TEAE by preferred term: Diarrhea (patients with PFIC; PEDFIC 2, Cohort 2, n = 16): 0 n (%)
- Drug-related TEAE by preferred term: INR increased (patients with PFIC; PEDFIC 2, Cohort 2, n = 16): 2 (12.5) n (%)
- Drug-related TEAE by preferred term: Pruritus (patients with PFIC; PEDFIC 2, Cohort 2, n = 16): 0 n (%)
- Drug-related TEAE by preferred term: Pyrexia (patients with PFIC; PEDFIC 2, Cohort 2, n = 16): 2 (12.5) n (%)
- Drug-related TEAE by preferred term: URTI (patients with PFIC; PEDFIC 2, Cohort 2, n = 16): 0 n (%)
- Drug-related TEAEs, patients (patients with PFIC; PEDFIC 2, Cohort 2, n = 16): 5 (31.3) n (%)
- Mild TEAE, patients (patients with PFIC; PEDFIC 2, Cohort 2, n = 16): 2 (12.5) n (%)
- Moderate TEAE, patients (patients with PFIC; PEDFIC 2, Cohort 2, n = 16): 3 (18.8) n (%)
- Serious TEAEs, patients (patients with PFIC; PEDFIC 2, Cohort 2, n = 16): 1 (6.3) n (%)
- Severe TEAE, patients (patients with PFIC; PEDFIC 2, Cohort 2, n = 16): 3 (18.8) n (%)
- TEAEs leading to discontinuation, patients (patients with PFIC; PEDFIC 2, Cohort 2, n = 16): 2 (12.5) n (%)
- Any TEAE, patients (patients with PFIC; PEDFIC 2, P1O, n = 34): 28 (82.4) n (%)
- Drug-related TEAE by preferred term: Blood bilirubin increased (patients with PFIC; PEDFIC 2, P1O, n = 34): 4 (11.8) n (%)
- Drug-related TEAE by preferred term: Cough (patients with PFIC; PEDFIC 2, P1O, n = 34): 8 (23.5) n (%)
- Drug-related TEAE by preferred term: Diarrhea (patients with PFIC; PEDFIC 2, P1O, n = 34): 6 (17.6) n (%)
- Drug-related TEAE by preferred term: INR increased (patients with PFIC; PEDFIC 2, P1O, n = 34): 2 (5.9) n (%)
- Drug-related TEAE by preferred term: Pruritus (patients with PFIC; PEDFIC 2, P1O, n = 34): 4 (11.8) n (%)
- Drug-related TEAE by preferred term: Pyrexia (patients with PFIC; PEDFIC 2, P1O, n = 34): 7 (20.6) n (%)
- Drug-related TEAE by preferred term: URTI (patients with PFIC; PEDFIC 2, P1O, n = 34): 9 (26.5) n (%)
- Drug-related TEAEs, patients (patients with PFIC; PEDFIC 2, P1O, n = 34): 10 (29.4) n (%)
- Mild TEAE, patients (patients with PFIC; PEDFIC 2, P1O, n = 34): 17 (50.0) n (%)
- Moderate TEAE, patients (patients with PFIC; PEDFIC 2, P1O, n = 34): 10 (29.4) n (%)
- Serious TEAEs, patients (patients with PFIC; PEDFIC 2, P1O, n = 34): 0 n (%)
- Severe TEAE, patients (patients with PFIC; PEDFIC 2, P1O, n = 34): 1 (2.9) n (%)
- TEAEs leading to discontinuation, patients (patients with PFIC; PEDFIC 2, P1O, n = 34): 0 n (%)
- Any TEAE, patients (patients with PFIC; PEDFIC 2, P1P, n = 19): 14 (73.7) n (%)
- Drug-related TEAE by preferred term: Blood bilirubin increased (patients with PFIC; PEDFIC 2, P1P, n = 19): 2 (10.5) n (%)
- Drug-related TEAE by preferred term: Cough (patients with PFIC; PEDFIC 2, P1P, n = 19): 2 (10.5) n (%)
- Drug-related TEAE by preferred term: Diarrhea (patients with PFIC; PEDFIC 2, P1P, n = 19): 1 (5.3) n (%)
- Drug-related TEAE by preferred term: INR increased (patients with PFIC; PEDFIC 2, P1P, n = 19): 2 (10.5) n (%)
- Drug-related TEAE by preferred term: Pruritus (patients with PFIC; PEDFIC 2, P1P, n = 19): 2 (10.5) n (%)
- Drug-related TEAE by preferred term: Pyrexia (patients with PFIC; PEDFIC 2, P1P, n = 19): 4 (21.1) n (%)
- Drug-related TEAE by preferred term: URTI (patients with PFIC; PEDFIC 2, P1P, n = 19): 5 (26.3) n (%)
- Drug-related TEAEs, patients (patients with PFIC; PEDFIC 2, P1P, n = 19): 5 (26.3) n (%)
- Mild TEAE, patients (patients with PFIC; PEDFIC 2, P1P, n = 19): 6 (31.6) n (%)
- Moderate TEAE, patients (patients with PFIC; PEDFIC 2, P1P, n = 19): 7 (36.8) n (%)
- Serious TEAEs, patients (patients with PFIC; PEDFIC 2, P1P, n = 19): 3 (15.8) n (%)
- Severe TEAE, patients (patients with PFIC; PEDFIC 2, P1P, n = 19): 1 (5.3) n (%)
- TEAEs leading to discontinuation, patients (patients with PFIC; PEDFIC 2, P1P, n = 19): 1 (5.3) n (%)
- mean serum chemistry, hematology, urinalysis, international normalized ratio values (patients with PFIC; PEDFIC 2, laboratory assessments): No clinically significant changes or safety signals
- patients reporting mild/moderate TEAEs (patients with PFIC; PEDFIC 2, of 50 patients overall with any TEAE): 45 patients
- rate of discontinuations due to TEAEs (patients with PFIC; PEDFIC 2 overall): < 30
- patients overall with any TEAE (patients with PFIC; PEDFIC 2 overall (69 patients)): 50 patients
- incidence of diarrhea (patients with PFIC; PEDFIC 2 overall, 7 patients, through week 24): 10.1%
- deaths or drug-related serious TEAEs (patients with PFIC; PEDFIC 2 through week 24): no deaths or drug-related serious TEAEs occurred
- tolerability (patients with PFIC; PEDFIC 2 through week 24, 120 μg/kg/day): generally well tolerated
